Experimental data reported in paper PMC8069799, “Alpha-Glucosidase Inhibitory Diterpenes from Euphorbia antiquorum Growing in Vietnam” (Molecules, 2021).

How the values were obtained:
[1] = biological target: Saccharomyces cerevisiae α-glucosidase (E.C 3.2.1.20); test: Alpha-glucosidase inhibition assay; type: biochemical; settings: 0.2 U/mL enzyme, 5.0 mM pNPG, pH 6.9 sodium phosphate buffer, 37 °C, triplicate; read-out: Alpha-glucosidase inhibitory activity IC50
Description: The alpha-glucosidase (0.2 U/mL) and substrate (5.0 mM pNPG) were dissolved in 100 mM pH 6.9 sodium phosphate buffer. The inhibitor (50 µL) was preincubated with alpha-glucosidase at 37 °C for 20 min, and then the substrate (40 µL) was added to the reaction mixture. The enzymatic reaction was carried out at 37 °C for 20 min and stopped by adding 0.2 M Na2CO3 (130 μL). Enzymatic activity was quantified by measuring absorbance at 405 nm (CLARIOstar plus, BMG LABTECH, Ortenberg, Germany). All samples were analyzed in triplicate at five different concentrations around the IC50 values, and the mean values were retained. The inhibition percentage (%) was calculated by the following equation:Inhibition (%) = [1 − (Asample/Acontrol)] × 100.(1)

alpha-glucosidase = test: Inhibitory type assay of 3 on alpha-glucosidase (Lineweaver–Burk plots, secondary plots); type: biochemical, yeast
Description: In order to examine the inhibition mechanism of 3, their activity was measured at the different concentration of 4-nitrophenyl […] (pNPG).
The mechanisms of inhibition of alpha-glucosidase by 3 were determined by Lineweaver–Burk plots (Microsoft Excel 2010, Redmond, WA, USA), using methods similar to those reported in the literature. Enzyme inhibition due to various concentrations of the 3 were evaluated by monitoring the effects of different concentrations of the substrate. For Lineweaver–Burk double reciprocal plots 1/enzyme velocity (1/V) vs. 1/substrate concentration (1/[S]), the inhibition type was determined using various concentrations of pNPG (1 mM, 2 mM, and 4 mM) as a substrate in the presence of different concentrations of the test compound (0, 13.8, 27.7, and 55.5 µM). The experiments were carried out in three replicates. The mixtures were incubated at 37 °C and the optical density was measured at 405 nm every 1 min for 30 min with the Clariostar Labtech microplate reader (Ortenberg, Germany). Optimal concentrations of the tested compound were chosen based on the IC50 value. The inhibition constants were obtained graphically from secondary plots (Microsoft Excel 2010, Redmond, WA, USA).

SMILES | IC50 [1] [µM] | inhibition type (alpha-glucosidase; Lineweaver–Burk plots, Vmax decreased while Km remained constant) | Ki (alpha-glucosidase; pNPG 1, 2, 4 mM, inhibitor 0, 13.8, 27.7, 55.5 µM, secondary plot of slope vs. inhibitor concentration, read-out: inhibition constant (Ki)) [µM]
CC(=O)O[C@H]1CC[C@@]2(C)C3C[C@@H]4CC[C@@]3(CC[C@@H]2C1(C)C)C[C@@]4(O)CO (single isomer, unassigned; ent-3) [Compound 4, ent-3α-acetoxy-16β,17-dihydroxyatisane] | 102 | – | –
CC(=O)OC1C(C)C(=O)C23CC(C)C(O)C2(C=C(C)C(O)C(O)C2C1C2(C)C)O3 (centres unmarked) [Compound 7, ingol 12-acetate] | 115 | – | –

More lines, now with the values ahead:

IC50 [1] [µM] | inhibition type (alpha-glucosidase; Lineweaver–Burk plots, Vmax decreased while Km remained constant) | Ki (alpha-glucosidase; pNPG 1, 2, 4 mM, inhibitor 0, 13.8, 27.7, 55.5 µM, secondary plot of slope vs. inhibitor concentration, read-out: inhibition constant (Ki)) [µM] | SMILES
131 | – | – | CCOC(=O)CC[C@]1(C)[C@@H](C(C)(C)O)CC[C@@]23CC[C@@H](C[C@H]21)[C@](O)(CO)C3 (single isomer, unassigned; ent-3) [Compound 2, ethyl ent-3,4-seco-4,16β,17-trihydroxyatisane-3-carboxylate]
125 | – | – | CC1(C)C(O)CC(O)C2(C)C3CC4CCC3(CCC12)CC4(O)CO (single isomer, unassigned; ent-1) [Compound 1, ent-1α,3α,16β,17-tetrahydroxyatisane]
156 | – | – | CC1(C)C(=O)CC[C@@]2(C)[C@H]1CC[C@@]13C[C@H](CC[C@@H]12)[C@@](O)(CO)C3 [Compound 6, calliterpenone]
69.6 | noncompetitive inhibitor | 65.8 | CC1(C)OC[C@@]2(C[C@]34CC[C@H]2C[C@H]3[C@]2(C)CCC(=O)C(C)(C)[C@H]2CC4)O1 [Compound 3, ent-atisane-3-oxo-16β,17-acetonide]
